Values joined by “and” are separate entries in the source; they are usually repeats but may differ in a detail not shown here. Equal entries are not always repeated. Toxic doses and inconclusive results are not listed. Residues, ends and D or L forms follow the SMILES beside them. *: point of attachment. Boc = CC(C)(C)OC(=O)*; NHNH2 = NN*
Tested on: CD2F1 mice, L1210 leukemia ip, survival T/C
Assay: NCI In Vivo Anticancer Drug Screen. Data for tumor model L1210 Leukemia (intraperitoneal) in CD2F1 (CDF1) mice
Details: higher = longer survival
Experimental: The antitumor activity of compounds was measured in mice bearing transplantable tumors. Survival or tumor size were measured and the results are expressed as the measurement made in the treated group (T) divided by the measurement made in the vehicle treated control group (C). The tumor model used in this assay is L1210 Leukemia (intraperitoneal) in CD2F1 (CDF1) mice

[1] = endpoint: mean survival time, dose: 12.5 mg/kg/injection, schedule: Q01DX009 (ip), vehicle: saline
[2] = endpoint: mean survival time, dose: 25.0 mg/kg/injection, schedule: Q01DX009 (ip), vehicle: saline with Tween-80
[3] = endpoint: mean survival time, dose: 25.0 mg/kg/injection, schedule: Q01DX009 (ip), vehicle: saline
[4] = endpoint: mean survival time, dose: 50.0 mg/kg/injection, schedule: Q01DX009 (ip), vehicle: saline with Tween-80
[5] = endpoint: mean survival time, dose: 50.0 mg/kg/injection, schedule: Q01DX009 (ip), vehicle: saline
[6] = endpoint: mean survival time, dose: 100.0 mg/kg/injection, schedule: Q01DX009 (ip), vehicle: saline with Tween-80
[7] = endpoint: mean survival time, dose: 200.0 mg/kg/injection, schedule: Q01DX009 (ip), vehicle: saline
[8] = endpoint: mean survival time, dose: 400.0 mg/kg/injection, schedule: Q01DX009 (ip), vehicle: saline with Tween-80
[9] = endpoint: mean survival time, dose: 200.0 mg/kg/injection, schedule: Q01DX009 (ip), vehicle: saline with Tween-80
[10] = endpoint: mean survival time, dose: 200.0 mg/kg/injection, schedule: Q01DX005 (ip), vehicle: distilled water + Tween-80
[11] = endpoint: mean survival time, dose: 400.0 mg/kg/injection, schedule: Q01DX005 (ip), vehicle: distilled water + Tween-80
[12] = endpoint: mean survival time, dose: 100.0 mg/kg/injection, schedule: Q04DX003 (ip), vehicle: saline with Tween-80
[13] = endpoint: mean survival time, dose: 200.0 mg/kg/injection, schedule: Q04DX003 (ip), vehicle: saline with Tween-80

In the case of CCOC(=O)c1c[nH]c2oc(/C=N/N3CC(CN4CCOCC4)OC3=O)cc2c1=O (centres undefined), the T/C [1] is reported as 97 % of control and 109 % of control, the T/C (endpoint: mean survival time, dose: 25.0 mg/kg/injection, schedule: Q01DX009 (ip), vehicle: other) is reported as 102 % of control and the T/C [2] is reported as 107 % of control. The T/C [3] was 97 % of control and 103 % of control, the T/C (endpoint: mean survival time, dose: 50.0 mg/kg/injection, schedule: Q01DX009 (ip), vehicle: other) was 110 % of control and the T/C [4] was 109 % of control. The T/C [5] was 114 % of control and 101 % of control, the T/C [6] was 124 % of control and the T/C (endpoint: mean survival time, dose: 200.0 mg/kg/injection, schedule: Q01DX009 (ip), vehicle: other) was 160 % of control. For the same compound, the T/C [7] was 158 % of control, the T/C (endpoint: mean survival time, dose: 400.0 mg/kg/injection, schedule: Q01DX009 (ip), vehicle: other) was 96 % of control and the T/C [8] was 152 % of control. The T/C (endpoint: mean survival time, dose: 400.0 mg/kg/injection, schedule: Q01DX009 (ip), vehicle: saline) was 124 % of control and 100 % of control, the T/C (endpoint: median survival time, dose: 50.0 mg/kg/injection, schedule: Q01DX005 (ip), vehicle: other) was 112 % of control and the T/C (endpoint: median survival time, dose: 50.0 mg/kg/injection, schedule: Q01DX009 (ip), vehicle: acid diluted with saline) was 115 % of control and 101 % of control. The T/C (endpoint: median survival time, dose: 100.0 mg/kg/injection, schedule: Q01DX005 (ip), vehicle: other) was 118 % of control, the T/C (endpoint: median survival time, dose: 100.0 mg/kg/injection, schedule: Q01DX009 (ip), vehicle: acid diluted with saline) was 124 % of control and the T/C (endpoint: median survival time, dose: 400.0 mg/kg/injection, schedule: Q01DX005 (ip), vehicle: other) was 190 % of control. For the same compound, the T/C (endpoint: median survival time, dose: 400.0 mg/kg/injection, schedule: Q01DX009 (ip), vehicle: acid diluted with saline) was 90 % of control.
CC(=O)NCC(O)C(O)C(O)C(O)COC(=O)c1ccccc1 (centres undefined) was tested, and the T/C (endpoint: mean survival time, dose: 100.0 mg/kg/injection, schedule: Q01DX001 (ip), vehicle: saline with Tween-80) was 95 % of control, the T/C (endpoint: mean survival time, dose: 200.0 mg/kg/injection, schedule: Q01DX001 (ip), vehicle: saline with Tween-80) was 95 % of control and the T/C (endpoint: mean survival time, dose: 400.0 mg/kg/injection, schedule: Q01DX001 (ip), vehicle: saline with Tween-80) was 96 % of control.
In the case of CN1CCOc2ccccc2OCCOCCOc2ccccc2OCC1, the T/C (endpoint: mean survival time, dose: 100.0 mg/kg/injection, schedule: Q01DX009 (ip), vehicle: Klucel (hydroxypropylcellulose) (HPC)) is reported as 105 % of control and the T/C (endpoint: mean survival time, dose: 200.0 mg/kg/injection, schedule: Q01DX009 (ip), vehicle: Klucel (hydroxypropylcellulose) (HPC)) is reported as 106 % of control.
In the case of CC(C)CC(NC(=O)C(Cc1c[nH]c2ccccc12)NC(=O)OC(C)(C)C)C(=O)NN (stereo not drawn) (Boc-Trp-Leu-NHNH2; configuration not given here), the T/C [3] is reported as 105 % of control, the T/C [5] is reported as 106 % of control and 109 % of control and the T/C (endpoint: mean survival time, dose: 100.0 mg/kg/injection, schedule: Q01DX009 (ip), vehicle: saline) is reported as 117 % of control and 124 % of control. The T/C [7] was 117 % of control.
For O=S(=O)(c1ccc(NC(=S)N/N=C/c2ccccc2O)cc1)N1CCCCC1, the T/C (endpoint: mean survival time, dose: 12.5 mg/kg/injection, schedule: Q01DX009 (ip), vehicle: olive oil, sesame oil, peanut oil) was 98 % of control, the T/C (endpoint: mean survival time, dose: 25.0 mg/kg/injection, schedule: Q01DX009 (ip), vehicle: olive oil, sesame oil, peanut oil) was 94 % of control and the T/C (endpoint: mean survival time, dose: 50.0 mg/kg/injection, schedule: Q01DX009 (ip), vehicle: olive oil, sesame oil, peanut oil) was 102 % of control. For the same compound, the T/C (endpoint: mean survival time, dose: 100.0 mg/kg/injection, schedule: Q01DX009 (ip), vehicle: olive oil, sesame oil, peanut oil) was 104 % of control, the T/C (endpoint: mean survival time, dose: 200.0 mg/kg/injection, schedule: Q01DX009 (ip), vehicle: olive oil, sesame oil, peanut oil) was 94 % of control and the T/C (endpoint: mean survival time, dose: 400.0 mg/kg/injection, schedule: Q01DX009 (ip), vehicle: olive oil, sesame oil, peanut oil) was 96 % of control.
In the case of CN(C)S(=O)(=O)c1ccc(Cl)c([N+](=O)[O-])c1, the T/C (endpoint: mean survival time, dose: 100.0 mg/kg/injection, schedule: Q04DX002 (ip), vehicle: Klucel (hydroxypropylcellulose) (HPC)) is reported as 106 % of control and the T/C (endpoint: mean survival time, dose: 200.0 mg/kg/injection, schedule: Q04DX002 (ip), vehicle: Klucel (hydroxypropylcellulose) (HPC)) is reported as 106 % of control.
FC(F)(F)c1ccc2c(c1)N(CCCN1CCN(CCC3OCCCO3)CC1)c1ccccc1S2 was tested, and the T/C (endpoint: mean survival time, dose: 0.78 mg/kg/injection, schedule: Q01DX009 (ip), vehicle: saline) was 96 % of control, the T/C (endpoint: mean survival time, dose: 1.56 mg/kg/injection, schedule: Q01DX009 (ip), vehicle: saline) was 96 % of control and the T/C (endpoint: mean survival time, dose: 3.12 mg/kg/injection, schedule: Q01DX009 (ip), vehicle: saline) was 94 % of control. For the same compound, the T/C (endpoint: mean survival time, dose: 6.25 mg/kg/injection, schedule: Q01DX009 (ip), vehicle: saline) was 96 % of control and the T/C [1] was 103 % of control.
For COc1ccc(C(O)c2ccccc2S(=O)(=O)N(C)C)cc1 (centres undefined), the T/C (endpoint: mean survival time, dose: 100.0 mg/kg/injection, schedule: Q01DX009 (ip), vehicle: saline sonified) was 105 % of control, the T/C (endpoint: mean survival time, dose: 200.0 mg/kg/injection, schedule: Q01DX009 (ip), vehicle: saline sonified) was 96 % of control and the T/C (endpoint: mean survival time, dose: 400.0 mg/kg/injection, schedule: Q01DX009 (ip), vehicle: saline sonified) was 93 % of control.
CCCN1CSC(=S)N(Cc2ccccc2)C1 was tested, and the T/C [6] was 92 % of control, the T/C [9] was 97 % of control and the T/C [8] was 92 % of control.
For Cn1c(=O)c2c(ncn2C(C(N)=O)C(N)=O)n(C)c1=O, the T/C [10] was 106 % of control and the T/C [11] was 100 % of control.
In the case of COc1cccc2c1C(=O)c1c(O)c3c(c(O)c1C2=O)C[C@@](O)(/C(C)=N\NC(=O)CO)C[C@@H]3OC1CC(N)C(O)C(C)O1 (some centres undefined), the T/C (endpoint: mean survival time, dose: 0.25 mg/kg/injection, schedule: Q01DX009 (ip), vehicle: water) is reported as 103 % of control, the T/C (endpoint: mean survival time, dose: 0.5 mg/kg/injection, schedule: Q01DX009 (ip), vehicle: water) is reported as 101 % of control and the T/C (endpoint: mean survival time, dose: 0.78 mg/kg/injection, schedule: Q01DX009 (ip), vehicle: water) is reported as 107 % of control. The T/C (endpoint: mean survival time, dose: 1.0 mg/kg/injection, schedule: Q01DX009 (ip), vehicle: water) was 98 % of control, the T/C (endpoint: mean survival time, dose: 1.0 mg/kg/injection, schedule: Q04DX003 (ip), vehicle: saline with Tween-80) was 115 % of control and the T/C (endpoint: mean survival time, dose: 1.56 mg/kg/injection, schedule: Q01DX009 (ip), vehicle: water) was 107 % of control. The T/C (endpoint: mean survival time, dose: 2.0 mg/kg/injection, schedule: Q01DX009 (ip), vehicle: water) was 106 % of control, the T/C (endpoint: mean survival time, dose: 2.0 mg/kg/injection, schedule: Q04DX003 (ip), vehicle: saline with Tween-80) was 113 % of control and the T/C (endpoint: mean survival time, dose: 3.13 mg/kg/injection, schedule: Q01DX009 (ip), vehicle: water) was 119 % of control. For the same compound, the T/C (endpoint: mean survival time, dose: 4.0 mg/kg/injection, schedule: Q01DX009 (ip), vehicle: water) was 111 % of control, the T/C (endpoint: mean survival time, dose: 4.0 mg/kg/injection, schedule: Q04DX003 (ip), vehicle: saline with Tween-80) was 117 % of control and the T/C (endpoint: mean survival time, dose: 8.33 mg/kg/injection, schedule: Q04DX003 (ip), vehicle: saline) was 121 % of control. For the same compound, the T/C [1] was 101 % of control and the T/C (endpoint: mean survival time, dose: 12.5 mg/kg/injection, schedule: Q01DX009 (ip), vehicle: water) was 115 % of control.
CC(=O)OCC1OC(n2nc(C#N)c(C#N)n2)C(OC(C)=O)C1OC(C)=O (centres undefined) was tested, and the T/C (endpoint: mean survival time, dose: 12.5 mg/kg/injection, schedule: Q01DX005 (ip), vehicle: distilled water + Tween-80) was 106 % of control, the T/C (endpoint: mean survival time, dose: 25.0 mg/kg/injection, schedule: Q01DX005 (ip), vehicle: distilled water + Tween-80) was 101 % of control and 106 % of control and the T/C (endpoint: mean survival time, dose: 50.0 mg/kg/injection, schedule: Q01DX005 (ip), vehicle: distilled water + Tween-80) was 98 % of control and 112 % of control. The T/C (endpoint: mean survival time, dose: 100.0 mg/kg/injection, schedule: Q01DX005 (ip), vehicle: distilled water + Tween-80) was 115 % of control and 104 % of control, the T/C [10] was 121 % of control and 104 % of control and the T/C [11] was 106 % of control.
With CCC(C)(S(=O)(=O)CC)S(=O)(=O)CC the T/C [12] was 102 % of control, the T/C [13] was 98 % of control and the T/C (endpoint: mean survival time, dose: 400.0 mg/kg/injection, schedule: Q04DX003 (ip), vehicle: saline with Tween-80) was 98 % of control.
With Cc1nc(SCc2ccccc2)[nH]c(=O)c1CCO the T/C [12] was 96 % of control and the T/C [13] was 96 % of control.
For O=c1c(O)c(-c2cc(O)c(O)c(O)c2)oc2cc(O)cc(O)c12, the T/C [2] was 98 % of control, the T/C [4] was 91 % of control and the T/C [6] was 93 % of control. The T/C [9] was 95 % of control.
With CC1(C)CCC(C#N)=C1N the T/C (endpoint: mean survival time, dose: 12.5 mg/kg/injection, schedule: Q04DX003 (ip), vehicle: saline with Tween-80) was 97 % of control, the T/C (endpoint: mean survival time, dose: 25.0 mg/kg/injection, schedule: Q04DX003 (ip), vehicle: saline with Tween-80) was 97 % of control and the T/C (endpoint: mean survival time, dose: 50.0 mg/kg/injection, schedule: Q04DX003 (ip), vehicle: saline with Tween-80) was 91 % of control.
CCOC(=O)c1c(-c2ccccc2)csc1NS(=O)(=O)c1ccc(C)cc1 was tested, and the T/C (endpoint: mean survival time, dose: 75.0 mg/kg/injection, schedule: Q01DX001 (ip), vehicle: saline) was 96 % of control, the T/C (endpoint: mean survival time, dose: 150.0 mg/kg/injection, schedule: Q01DX001 (ip), vehicle: saline) was 90 % of control and the T/C (endpoint: mean survival time, dose: 300.0 mg/kg/injection, schedule: Q01DX001 (ip), vehicle: saline) was 101 % of control.

— PubChem BioAssay AID256 (DTP/NCI, 2004)
